Legend:
[1] = tested on: papillary muscle of the guinea pig; test: Action potential duration (APD90) in the papillary muscle of the guinea pig, shortened by rilmakalim (HOE 234); assay type: cell-based; conditions: test substance 2 μmol/l, 60 min after its addition; rilmakalim (HOE 234) 1 μg/ml given 30 min before; starting values 165-191, after HOE 234 alone 18-37; 37° C., 1 Hz
Excerpt: Test 1: Action potential duration in the papillary muscle of the guinea pig
ATP deficiency states, such as are observed during ischemia in the cardiac muscle cell, lead to a reduction of the action potential duration. They are regarded as one of the causes of so-called reentry arrhythmias, which can cause sudden heart death. The opening of ATP-sensitive potassium channels by the lowering of ATP (adenosine triphosphate) is regarded as causing this.
A standard microelectrode technique was employed for the measurement of the action potential in the papillary muscle of the guinea pig. For this guinea pigs of both sexes were killed by a blow to the head, the hearts were removed, the papillary muscles were separated out and suspended in an organ bath. The organ bath was irrigated with Ringer's solution (136 mmol/l of NaCl, 3.3 mmol/l of KCl, 2.5 mmol/l of CaCl2, 1.2 mmol/l of KH2PO4, 1.1 mmol/l of MgSO4, 5.0 mmol/l of glucose, 10.0 mmol/l of N-(2-hydroxyethyl)piperazine-N′-(2-ethanesulfonic acid) (HEPES), pH adjusted to 7.4 with NaOH) and aerated with 100% oxygen at a temperature of 37° C. The muscle was stimulated by means of an electrode using squarewave impulses of 1 V and 1 ms duration and a frequency of 1 Hz. The action potential was derived and recorded by means of a glass microelectrode inserted intracellularly, which is filled with 3 mol/l of KCl solution. The substance to be tested was added to the Ringer's solution in a concentration of 2 μmol/l. The action potential was amplified using an amplifier from Hugo Sachs (March-Hugstetten, Germany) and stored and analyzed by means of a computer. The duration of the action potential was determined at a degree of repolarization of 90% (APD90). The action potential reduction was produced by addition of a solution of the potassium channel opener rilmakalim (HOE 234) (W. Linz, E. Klaus, U. Albus, R. H. A. Becker, D. Mania, H. C. Englert, B. A. Schölkens, Arzneimittelforschung/Drug Research, 42 (II) (1992) 1180-1185) (rilmakalim concentration 1 μg/ml). 30 minutes after the administration of rilmakalim, the action potential duration APD90 was recorded. The test substance was then added and the action potential duration APD90, which was extended again, was recorded after a further 60 minutes. The test substances were added to the bath solution as stock solutions in propanediol.

RINm5F cells = test: Membrane potential on isolated β cells (whole-cell patch clamp, RINm5F cells); assay type: cell-based; conditions: 1 μmol/l test substance, diaxozide 100 μmol/l in bath, 34±1° C., control potential before addition −70 to −78 mV
Excerpt: Test 2: Membrane potential on isolated β cells
The mechanism of action of the hypoglycemic sulfonylureas such as, for example, glibenclamide has been elucidated in broad outline. The target organ of the sulfonylureas is the β cell of the pancreas, where they contribute to the release of the hypoglycemic hormone insulin by influencing the electrical potential of the cell membrane. A hypoglycemic sulfonylurea such as, for example, glibenclamide brings about a depolarization of the cell membrane, which leads to a […] influx of calcium ions and as a consequence of this to insulin release. The extent ΔU of this depolarization of the cell membrane by the test substances was determined on insulin-secreting RINm5F cells, a pancreas tumor cell line. The potency of a compound in this model predicts the extent of the […] potential of this compound.
Cell cultures of RINm5F cells: RINm5F cells were cultured at 37° C. in RPMI 1640 culture medium (Flow), to which 11 mmol/l of glucose, 10% (v/v) fetal calf serum, 2 mmol/l of glutamine and 50 μg/ml of gentamycin were added. The cells were inoculated onto petri dishes every 2 to 3 days and kept in a humidified atmosphere of […] and 5% CO2 at a temperature of 37° C. For the investigations, the cells were isolated by incubation (about 3 min) in a Ca^2+-free medium which contains 0.25% trypsin.
Measuring method: in a Plexiglas chamber, isolated RINm5F cells were applied to an inverted microscope which was equipped with differential interference contrast optics. Under visual control (400× magnification), a fire-polished micropipette having an opening diameter of approximately 1 μm was placed onto the cell with the aid of a micromanipulator. By applying a slight underpressure to the interior of the patch pipette, a high electrical seal between the glass and cell membrane was first produced. Then, by increasing the underpressure, the membrane spot under the measuring pipette was torn off. In this whole-cell configuration, the cell potential was recorded with the aid of a patch clamp amplifier (L/M EPC 7, List, Darmstadt) and the whole-cell current was measured by applying a voltage ramp. […] Stock solutions of the test substances in a concentration of 100 mmol/l in DMSO and corresponding dilutions in an NaCl solution were prepared. DMSO on its own had no effect on the cell potential. In order to stabilize the cell potential, diaxozide (100 μmol/l), an opener for ATP-sensitive K^+ channels, was added to the bath solution in all experiments. All experiments were carried out at 34±1° C.

Compound | melting point [°C] | APD90 +HOE 234, 30 min., then +substance, 60 min. [1] [milliseconds] | ΔU (depolarization of the cell potential) (RINm5F cells) [mV]
CCNC(=S)NS(=O)(=O)c1cc(CCNC(=O)c2cc(Cl)ccc2OC)ccc1-c1ccc(SC)cc1 [Example 10, 5-(2-(5-Chloro-2-methoxybenzamido)ethyl)-N-(ethylaminothiocarbonyl)-2-(4-methylthiophenyl)benzenesulfonamide] | 178 to 179 |  | 
CCNC(=O)NS(=O)(=O)c1cc(CCNC(=O)c2cc(Cl)ccc2OC)ccc1-c1ccccc1 [Example 4, 5-(2-(5-Chloro-2-methoxybenzamido)ethyl)-N-(ethylaminocarbonyl)-2-phenylbenzenesulfonamide] |  | 81 | 
CNC(=S)NS(=O)(=O)c1cc(CCNC(=O)c2cc(Cl)ccc2OC)ccc1-c1ccc(OC)cc1 [Example 9, 5-(2-(5-Chloro-2-methoxybenzamido)ethyl)-2-(4-methoxyphenyl)-N-(methylaminothiocarbonyl)benzenesulfonamide] | 185 to 188 |  | 15
CCNC(=S)NS(=O)(=O)c1cc(CCNC(=O)c2cc(Cl)ccc2OC)ccc1-c1ccccc1 [Example 3, 5-(2-(5-Chloro-2-methoxybenzamido)ethyl)-N-(ethylaminothiocarbonyl)-2-phenylbenzenesulfonamide] | 168 to 170 |  | 
CNC(=O)NS(=O)(=O)c1cc(CCNC(=O)c2cc(Cl)ccc2OC)ccc1-c1cccs1 [Example 13, 5-(2-(5-Chloro-2-methoxybenzamido)ethyl)-N-(methylaminocarbonyl)-2-(2-thienyl)benzenesulfonamide] |  | 72 | 
CNC(=O)NS(=O)(=O)c1cc(CCNC(=O)c2cc(Cl)ccc2OC)ccc1-c1ccccn1 [Example 17, 5-(2-(5-Chloro-2-methoxybenzamido)ethyl)-N-(methylaminocarbonyl)-2-(2-pyridyl)benzenesulfonamide] | 160 |  | 
CNC(=S)NS(=O)(=O)c1cc(CCNC(=O)c2cc(Cl)ccc2OC)ccc1-c1cccs1 [Example 12, 5-(2-(5-Chloro-2-methoxybenzamido)ethyl)-N-(methylaminothiocarbonyl)-2-(2-thienyl)benzenesulfonamide] | 189 to 191 |  | 5
CNC(=S)NS(=O)(=O)c1cc(CCNC(=O)c2cc(Cl)ccc2OC)ccc1-c1ccco1 [Example 14, 5-(2-(5-Chloro-2-methoxybenzamido)ethyl)-2-(2-furyl)-N-(methylaminothiocarbonyl)benzenesulfonamide] | 145 to 146 |  | 7
CNC(=S)NS(=O)(=O)c1cc(CCNC(=O)c2cc(Cl)ccc2OC)ccc1-c1ccccc1 [Example 1, 5-(2-(5-Chloro-2-methoxybenzamido)ethyl)-N-(methylaminothiocarbonyl)-2-phenylbenzenesulfonamide] |  | 134 | 6
COc1ccc(Cl)cc1C(=O)NCCc1ccc(S(=O)(=O)NC(=O)NC2CCCCC2)cc1 [Glibenclamide, reference compound] |  |  | 47
CNC(=S)NS(=O)(=O)c1cc(CCNC(=O)c2cc(Cl)ccc2OC)ccc1Sc1ccccc1 [Example 20, 5-(2-(5-Chloro-2-methoxybenzamido)ethyl)-N-(methylaminothiocarbonyl)-2-(phenylsulfanyl)benzenesulfonamide] |  | 139 | 
CNC(=S)NS(=O)(=O)c1cc(CCNC(=O)c2cc(Cl)ccc2OC)ccc1-c1ccccn1 [Example 16, 5-(2-(5-Chloro-2-methoxybenzamido)ethyl)-N-(methylaminothiocarbonyl)-2-(2-pyridyl)benzenesulfonamide] |  | 153 | 
C#Cc1ccc(CCNC(=O)c2cc(Cl)ccc2OC)cc1S(=O)(=O)NC(=S)NC [Example 19, 5-(2-(5-Chloro-2-methoxybenzamido)ethyl)-2-ethynyl-N-(methylaminothiocarbonyl)benzenesulfonamide] | 224 to 225 |  | 
CNC(=S)NS(=O)(=O)c1cc(CCNC(=O)c2cc(Cl)ccc2OC)ccc1-c1ccc(F)cc1 [Example 7, 5-(2-(5-Chloro-2-methoxybenzamido)ethyl)-2-(4-fluorophenyl)-N-(methyl-aminothiocarbonyl)benzenesulfonamide] |  | 71 | 
CNC(=S)NS(=O)(=O)c1cc(CCNC(=O)c2cc(Cl)ccc2OC)ccc1-c1ccc(Cl)cc1 [Example 8, 5-(2-(5-Chloro-2-methoxybenzamido)ethyl)-2-(4-chlorophenyl)-N-(methyl-aminothiocarbonyl)benzenesulfonamide] | 189 to 192 |  | 
C=CCc1ccc(CCNC(=O)c2cc(Cl)ccc2OC)cc1S(=O)(=O)NC(=O)NC [Example 18, 2-Allyl-5-(2-(5-chloro-2-methoxybenzamido)ethyl)-N-(methylaminocarbonyl)benzenesulfonamide] | 124 to 126 |  | 
CNC(=O)NS(=O)(=O)c1cc(CCNC(=O)c2cc(Cl)ccc2OC)ccc1-c1ccco1 [Example 15, 5-(2-(5-Chloro-2-methoxybenzamido)ethyl)-2-(2-furyl)-N-(methylaminocarbonyl)benzenesulfonamide] |  | 83 | 
